The record followed here is patent US20190300832A1, “METHOD AND KIT FOR EXPANDING CIRCULATING TUMOR CELLS IN VITRO” (Taipei Medical University, priority 2018, published 2019).

In one assay the test system is small cell lung cancer. Briefly: Clinical treatment outcome of the patients the circulating tumor cells were taken from. Format: in vivo, human. The conditions noted are these: treated clinically. The text has this:
As can be known from FIG. 54, in the presence of cisplatin, etoposide, and Topotecan, the survival rate of the circulating tumor cells 21 derived the blood of the first patient is more than 85%, and there is no significant decrease compared with the control group Ctrl.
As can be known from FIG. 55, in the presence of cisplatin and topotecan, the survival rate of the expanded circulating tumor cells 21 from the second patient is less than 20%, and there is significant decrease compared with the control group Ctrl. […] In combination with the outcome where the patient is treated with cisplatin, etoposide, and Topotecan clinically, it can be further confirmed that the cisplatin and topotecan respond well to small cell lung cancer in the second patients, that is, have therapeutic effect.

Assay [1] has as its system circulating tumor cells derived from patients with small cell lung cancer. Briefly: CellTiter Luminescent cell viability of expanded circulating tumor cells treated with drugs. The conditions noted are these: expanded circulating tumor cells from the second small cell lung cancer patient; FIG. 55; result in words. The assay is classed as cell-based, human. The method, then:
In some embodiments, the preparation of the cell solution can be performed as follows. 5 ml of blood is sampled respectively patients having breast cancer, pancreatic cancer, and small cell lung cancer. 15 ml of Ficoll-Paque is added to a Leucosep™ centrifuge tube and centrifuged. The blood is diluted in phosphate buffered saline (PBS) and transferred to the Leucosep™ centrifuge tube, followed by centrifugation. After centrifugation, the supernatant in the Leucosep™ centrifuge tube is removed, and the retained lower solution is a monocyte phase. A circulating tumor cell enriched antibody mixture (RosetteSep™ CTC Enrichment Cocktail Containing AntiCD56) is added to the monocyte phase, and mixed at room temperature. After mixing, a PBS buffer containing 2% (v/v) Fetal Bovine Serum (FSB) is added and mixed to give a monocyte solution. Also, the monocyte solution is added to Ficoll-Paque and centrifuged at room temperature. […]
According to the above procedure, the circulating tumor cells 21 are isolated from the blood of two patients with small cell lung cancer and cultured. […] The cell viability was measured by CellTiter Luminescent cell viability and the survival rate is calculated by the following formula:
Cell survival rate (%)=(luminescence density in the treated group/luminescence density in the control group)×100%. […]

As to `CC[C@@]1(O)C(=O)OCc2c1cc1n(c2=O)Cc2cc3c(CN(C)C)c(O)ccc3nc2-1` [Topotecan], the “Clinical therapeutic effect on small cell lung cancer” value (shortened to “Clinical therapeutic effect”) in the assay on small cell lung cancer (first patient) is “no significant therapeutic effect”; in the assay with small cell lung cancer (second patient), “respond well”.

For `N.N.[Cl][Pt][Cl]` [cisplatin], the “Clinical therapeutic effect” value in the assay on small cell lung cancer (first patient) is listed as “no significant therapeutic effect”; with small cell lung cancer (second patient), “respond well”.

In the case of `COc1cc([C@@H]2c3cc4c(cc3[C@@H](O[C@@H]3O[C@@H]5CO[C@@H](C)O[C@H]5[C@H](O)[C@H]3O)[C@H]3COC(=O)[C@H]23)OCO4)cc(OC)c1O` [etoposide], the “Cell survival rate compared with control group” value in assay [1] is “lower than the control group Ctrl”. In addition, in the assay with small cell lung cancer (first patient), the “Clinical therapeutic effect” value is “no significant therapeutic effect”.
